Like-named read-outs stand apart in the source and are kept apart here.
Key:
Test in all cases: organism not typed
[1] = tested on: Enterobacterales expressing class A ESBLs; type: cell-based, E. coli, K. pneumoniae
[2] = tested on: Enterobacterales expressing class A carbapenemases (KPC); type: cell-based, K. pneumoniae, E. coli, E. cloacae, Klebsiella oxytoca
[3] = tested on: Enterobacterales expressing class D oxacillinases (OXA-48/48-like); type: cell-based, E. coli, K. pneumoniae
[4] = 25 isolates, BLI fixed at 4 μg/ml, AMC 2:1

Nc1nc(/C(=C/CC(=O)O)C(=O)N[C@@H]2C(=O)N3C(C(=O)O)=CCS[C@H]23)cs1 [CTB, ceftibuten]
0.25 µg/mL: MIC ([3]; E. coli SI-422 (OXA-48))
2 µg/mL: MIC ([2]; K. pneumoniae 897067 (KPC))
16 µg/mL: MIC50 [2] | MIC ([2]; E. cloacae 847429 (KPC)) | MIC ([2]; K. pneumoniae 845662 (KPC)) | MIC ([2]; K. pneumoniae 845667 (KPC)) | MIC ([2]; K. pneumoniae 847204 (KPC)) | MIC ([2]; K. pneumoniae 847387 (KPC)) | MIC ([2]; K. pneumoniae 848832 (KPC)) | MIC ([2]; K. pneumoniae 848844 (KPC)) | MIC50 [3, 4] | MIC ([3]; E. coli 664507 (OXA-48)) | MIC ([3]; E. coli 664520 (OXA-48)) | MIC ([3]; E. coli 664523 (OXA-48)) | MIC ([3]; E. coli 664524 (OXA-48)) | MIC ([3]; E. coli 664526 (OXA-48)) | MIC ([3]; E. coli 664528 (OXA-48)) | MIC ([3]; K. pneumoniae 515746 (OXA-48), first line) | MIC ([3]; K. pneumoniae 515746 (OXA-48), second line) | MIC ([3]; K. pneumoniae 664438 (OXA-48)) | MIC ([3]; K. pneumoniae 664439 (OXA-48))
0.06 µg/mL: MIC ([3]; E. coli VER (OXA-48))
≥ 64 µg/mL: MIC90 [1] | MIC90 [2] | MIC90 [2, 4] | MIC ([2]; E. cloacae 847426 (KPC)) | MIC ([2]; E. cloacae OIMGH49 (p99 AmpC, ACT-2, KPC-2, TEM-1)) | MIC ([2]; K. oxytoca 847537 (KPC)) | MIC ([2]; K. pneumoniae 155140 (AmpC, KPC-2, SHV-12, TEM-1)) | MIC90 [3, 4] | MIC ([3]; E. coli 787112 (OXA-48)) | MIC ([3]; K. pneumoniae 664509 (OXA-48)) | MIC ([3]; K. pneumoniae BAH (OXA-204)) | MIC ([3]; K. pneumoniae DEL (OXA-232))
4 µg/mL: MIC ([2]; K. pneumoniae 847747 (KPC))
1 µg/mL: MIC ([2]; K. pneumoniae 845904 (KPC)) | MIC ([2]; K. pneumoniae UMM (KPC-2, SHV-5, TEM-1))
8 µg/mL: MIC50 [1] | MIC ([2]; K. pneumoniae 847375 (KPC)) | MIC ([2]; K. pneumoniae 847378 (KPC)) | MIC ([2]; K. pneumoniae 847379 (KPC)) | MIC ([2]; K. pneumoniae 847383 (KPC)) | MIC ([2]; K. pneumoniae 847384 (KPC)) | MIC ([3]; K. pneumoniae 6299 (OXA-163)) | MIC ([3]; K. pneumoniae 722870 (OXA-48)) | MIC ([3]; K. pneumoniae DOV (OXA-48)) | MIC ([3]; K. pneumoniae KIRK (OXA-162))
0.5 µg/mL: MIC ([2]; K. oxytoca 847539 (KPC)) | MIC ([2]; K. pneumoniae 845670 (KPC))
32 µg/mL: MIC ([2]; E. coli 786978 (KPC)) | MIC ([2]; K. pneumoniae 845661 (KPC)) | MIC ([2]; K. pneumoniae 845665 (KPC)) | MIC ([3]; E. coli 664516 (OXA-48)) | MIC ([3]; E. coli 664522 (OXA-48)) | MIC ([3]; E. coli 664525 (OXA-48)) | MIC ([3]; K. pneumoniae 664518 (OXA-48))

Source: article PMC8284453 (Antimicrobial Agents and Chemotherapy, 2021)
